Results on 14 compounds are retold here after patent US5817670A, “Naphthyridine derivatives and pharmaceutical compositions thereof” (Yamanouchi Pharmaceutical Co., Ltd., priority 1994, dated 1998).

One test has as its target type I phosphodiesterase. Nature of the test: Phosphodiesterase inhibition activity (in vitro), Type I. It is filed as biochemical, rat. The source says: (§1) (A) In order to evaluate selectivity of the compounds of the present invention for type IV phosphodiesterase, types I, II, III and V phosphodiesterase isozymes were purified in the following manner.
(§2) 1) Solutions containing various phosphodiesterase (types I, II and III) isozymes were purified from rat heart muscle cells in the following manner. Under ether anesthesia, Wistar rat was subjected to thoracotomy to excise the heart. After removing blood by perfusion with physiological saline supplemented with heparin (1 unit/ml), the heart was finely chopped with scissors. This was suspended in buffer A (20 mM Bis-Tris, 5 mM dithioerythritol, 2 mM EGTA and 50 mM sodium acetate, pH 6.5) containing a protease inhibitor (50 μM phenyl-methyl-sulfonyl-fluoride, 5 μM pepstatin A, 40 μM leupeptin, 20 μM aprotinin or 2 mM benzamidine) and then the cells were disrupted using polytron and sonicator and subjected to ultracentrifugation (4° C., 100,000×g, 60 minutes) to give a soluble fraction.
(§3) 2) Solutions containing various phosphodiesterase isozymes were obtained from the thus obtained soluble fraction in the following manner. The thus, obtained soluble fraction was applied to a column of 1.6×10.0 cm packed with Q Sepharose which had been equilibrated with buffer A. Next, said column was washed with 300 ml of buffer A to remove non-absorbed protein. Phosphodiesterase was eluted with 200 ml of buffer A having 0.05 to 1.25M linear gradient of sodium acetate to collect about 40 fractions each containing 5.0 ml eluate. Each fraction was checked for cAMP- and cGMP-metabolizing phosphodiesterase activities. Of these fractions, a fraction having only cAMP-metabolizing activity and showing disappearance of the metabolizing activity by 0.1 μM cilostamide (a type III phosphodiesterase selective inhibitor) was used as the type III phosphodiesterase. […] These fractions were separately collected to be used as phosphodiesterase (types I, II and III) stock solutions for the examination of selectivity. p1 3) A solution containing type V phosphodiesterase was prepared from peripheral blood of a healthy person in the following manner. A 200 ml portion of physiological saline supplemented with dextran (3%) was added to 500 ml of heparinized peripheral blood and incubated at 37° C. for 40 minutes to effect precipitation of erythrocytes. The supernatant fluid after precipitation of erythrocytes was recovered and centrifuged once, and the resulting precipitate was suspended in buffer B (140 mM NaCl, 5 mM KCl, 5 mm glucose and 10 mM HEPES, pH 7.4), overlaid on a solution for density gradient centrifugation use (Ficoll solution) and then centrifuged at room temperature for 40 minutes at 450×g, thereby separating monocyte fraction and granulocyte fraction. The granulocyte fraction was washed once with buffer C (140 mM NaCl, 5 mM KCl, 1 mM CaCl2, 1 mM MgCl2, 5 mM glucose and 10 mM HEPES, pH 7.4) and suspended in buffer D (20 mM Bis-Tris, 5 mM dithioerythritol, 2 mM EGTA and 50 mM sodium acetate, pH 6.5) containing a protease inhibitor (40 μM leupeptin, 5 μM pepstatin A, 20 μM aprotinin, 50 μM phenyl-methyl-sulfonyl-fluoride or 2 mM benzamidine) and then the cells were disrupted using polytron and sonicator and subjected to ultracentrifugation (4° C., 100,000×g, 60 minutes) to give a soluble fraction.
(§4) (B) Inhibitory activities were measured using the thus obtained stock solutions of various phosphodiesterase isozymes.
(§5) 1) A predetermined amount of each compound to be tested was subjected to 10 minutes of reaction at 30° C. in a reaction mixture containing 40 mM Tris-HCl (pH 8.0), 5 mM MgCl2, 4 mM 2-mercaptoethanol, 10 μM rolipram (a type IV phosphodiesterase selective inhibitor), 1 μM cAMP, 10 nM ^3 H-cAMP (in the case of type V phosphodiesterase, 1 μM cAMP and 10 nM ^3 H-cAMP are replaced by 1 μM cGMP and 100 nM ^3 H-cGMP) and each of the isozyme stock solutions. […]

Test [1] deals with T1, type II phosphodiesterase (Rattus norvegicus, UniProt Q01062).
T1 construct: purified from rat heart muscle cells; from tissue; host or cells: rat heart, soluble fraction, Q Sepharose
T1 sequence (Q01062 1-928): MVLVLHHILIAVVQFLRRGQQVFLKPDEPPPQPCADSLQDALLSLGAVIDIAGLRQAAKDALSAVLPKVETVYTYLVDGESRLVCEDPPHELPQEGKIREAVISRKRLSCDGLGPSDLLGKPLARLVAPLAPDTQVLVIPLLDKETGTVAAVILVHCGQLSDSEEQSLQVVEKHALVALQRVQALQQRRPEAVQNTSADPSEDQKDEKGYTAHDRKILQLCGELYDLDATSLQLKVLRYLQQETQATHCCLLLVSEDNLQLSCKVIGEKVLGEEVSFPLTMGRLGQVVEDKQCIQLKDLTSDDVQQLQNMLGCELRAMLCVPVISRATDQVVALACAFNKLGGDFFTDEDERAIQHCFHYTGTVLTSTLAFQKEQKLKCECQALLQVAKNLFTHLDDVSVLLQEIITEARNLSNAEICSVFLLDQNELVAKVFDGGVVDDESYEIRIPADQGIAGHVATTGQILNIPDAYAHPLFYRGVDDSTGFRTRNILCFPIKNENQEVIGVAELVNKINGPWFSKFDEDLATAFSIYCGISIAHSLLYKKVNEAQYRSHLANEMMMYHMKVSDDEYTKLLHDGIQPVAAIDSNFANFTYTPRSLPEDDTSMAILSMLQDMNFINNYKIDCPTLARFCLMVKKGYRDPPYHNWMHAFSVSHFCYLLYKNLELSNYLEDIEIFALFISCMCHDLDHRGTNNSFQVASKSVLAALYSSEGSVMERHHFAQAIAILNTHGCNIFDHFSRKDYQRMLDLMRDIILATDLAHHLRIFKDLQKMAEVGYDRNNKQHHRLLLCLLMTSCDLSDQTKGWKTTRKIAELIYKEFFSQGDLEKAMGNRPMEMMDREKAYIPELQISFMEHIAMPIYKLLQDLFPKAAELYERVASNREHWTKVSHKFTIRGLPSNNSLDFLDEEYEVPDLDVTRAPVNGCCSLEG
Briefly: Phosphodiesterase inhibition activity (in vitro), Type II. It counts as biochemical. The following applies: Type II phosphodiesterase column.
Excerpt: as §1, §2, §3, §4, §5

Structures can show the parent of a compound that is named as a salt. Where only a bound is given, the exact number is not on record here.

As for `CCn1c(=O)cc(C2CCCCC2)c2cccnc21` [Example 46, 4-cyclohexyl-1-ethyl-1,8-naphthyridin-2(1H)-one 0.45 hydrochloride 0.25 hydrate], the IC50 is 0.0389 µM on type I phosphodiesterase and more than 30 µM in test [1].
Consider `CCn1c(=O)cc(-c2ccccc2)c2c(C)cc(C)nc21` [Example 38, 1-Ethyl-5,7-dimethyl-4-phenyl-1,8-naphthyridin-2(1H)-one], for which the results for the IC50 (at type I phosphodiesterase; in test [1]) were 0.0124 µM and 26.1 µM, respectively.
Regarding `CCc1cc(C)c2c(-c3ccccc3)cc(=O)n(CC)c2n1` [Example 40, 1,7-Diethyl-5-methyl-4-phenyl-1,8-naphthyridin-2(1H)-one], the values for the IC50 (on type I phosphodiesterase; in test [1]) were 0.0129 µM and 20.5 µM, respectively.
For `CCc1cc(C)c2c(-c3cccc(Cl)c3)cc(=O)n(C3CC3)c2n1` [Example 35, 4-(3-Chlorophenyl)-1-cyclopropyl-7-ethyl-5-methyl-1,8-naphthyridin-2(1H)-on] the same measures were 0.0242 µM and 22.3 µM.
For `CCn1c(=O)cc(-c2cccc(Br)c2)c2c(C)cc(C)nc21` [Example 30, 4-(3-Bromophenyl)-1-ethyl-5,7-dimethyl-1,8-naphthyridin-2(1H)-one] the same measures were 0.0099 µM and 10.5 µM.
For `CCn1c(=O)cc(-c2cccc(Cl)c2)c2cccnc21` [Example 15, 4-(3-Chlorophenyl)-1-ethyl-1,8-naphthyridin-2(1H)-one] the same measures were 0.0338 µM and 20.8 µM.
Turning to `CCc1cc(C)c2c(-c3cccc(Cl)c3)cc(=O)n(C)c2n1` [Example 27, 4-(3-Chlorophenyl)-7-ethyl-1,5-dimethyl-1,8-naphthyridin-2(1H)-one], the IC50 worked out at 0.0213 µM at type I phosphodiesterase and 25.6 µM in test [1].
Take `Cc1cc(C)c2c(-c3cccc(Cl)c3)cc(=O)n(C)c2n1` [Example 24, 4-(3-chlorophenyl)-1,5,7-trimethyl-1,8-naphthyridin-2(1H)-one]: the results for the IC50 (on type I phosphodiesterase; in test [1]) were 0.0419 µM and 51.8 µM, respectively.
For `CCCn1c(=O)cc(-c2cccc(Br)c2)c2c(C)cc(CC)nc21` [Example 33, 4-(3-Bromophenyl)-7-ethyl-5-methyl-1-propyl-1,8-naphthyridin-2(1H)-one] the same measures were 0.0143 µM and 35.4 µM.
For `CCc1cc(C)c2c(-c3cccc(Br)c3)cc(=O)n(CC)c2n1` [Example 31, 4-(3-bromophenyl)-1,7-diethyl-5-methyl-1,8-naphthyridin-2(1H)-one] the same measures were 0.0043 µM and more than 30 µM.
For `CCc1cc(C)c2c(-c3ccccc3)cc(=O)n(C)c2n1` [Example 26, 7-Ethyl-1,5-dimethyl-4-phenyl-1,8-naphthyridin-2(1H)-one] the same measures were 0.0234 µM and 30 µM.
Consider `CCc1cc(C)c2c(-c3cccc(Cl)c3)cc(=S)n(C)c2n1` [Example 43, 4-(3-chlorophenyl)-7-ethyl-1,5-dimethyl-1,8-naphthyridine-2(1H)-thione], for which the IC50 at type I phosphodiesterase is 0.016 µM; in test [1], more than 30 µM.
For `CCn1c(=O)cc(-c2cccc(Cl)c2)c2c(C)cc(C)nc21` [Example 29, 4-(3-Chlorophenyl)-1-ethyl-5,7-dimethyl-1,8-naphthyridin-2(1H)-one] the same measures were 0.0116 µM and 15.5 µM.
For `CCc1cc(C)c2c(C3CCCCC3)cc(=O)n(CC)c2n1` [Example 49, 4-cyclohexyl-1,7-diethyl-5-methyl-1,8-naphthyridin-2(1H)-one] the same measures were 0.0337 µM and 22.8 µM.

What is called IC50 is the midpoint of a concentration-inhibition curve. A low value points to inhibition by little substance.
